According to US11136325B2, “Pyrrolopyrimidine and pyrrolopyridine derivatives” (GALAPAGOS NV, priority 2017, dated 2021):
Entries after “also recorded” stand apart in the source; their conditions may differ.

Assays:
[1] = system: MIA induced hyperalgesia in the rat; experiment: MIA induced hyperalgesia in the rat, in vivo chronic pain model (weight bearing); settings: 10 mg/kg p.o. daily day 3 to day 16, vs vehicle
Text: Intra-articular administration of Monosodium Iodoacetate (MIA) in the ipsilateral knee of Sprague Dawley rats leads to development of a robust and long-lasting hyperalgesia and allodynia associated initially with an inflammatory response.
(§1) Naive rats distribute their body weight equally between the two hind paws. However, when the injected (left) hind knee is inflamed and/or painful, the weight is re-distributed so that less weight is put on the affected limb (decrease in weight bearing on injured limb). Weight bearing through each hind limb is measured using a rat incapacitance tester (Linton Instruments, UK).
Osteoarthritis (OA) in rats ((Sprague Dawley, male, groups of 10) was induced via injection of MIA solution (Sigma, 12512), 25 μL of 80 mg/mL, (2 mg) into the knee joint of the left hind leg. Weight bearing was assessed on Days 3, 5, 7, 9, 12 & 16, following injection of MIA, for development of chronic pain. At Day 3 weight bearing measurements were taken and animals were ranked and randomised to treatment groups according to their MIA window in a Latin square design. […]
Weight bearing (g) readings were taken for both right and left hind paws and the difference calculated. Data are expressed as % ratio ipsilateral/contralateral ((WB left/WB right)*100) (mean±s.e.m.)
Calculation: Ipsilateral reading/contralateral reading x 100. […]

[2] = system: CDAHFD diet-induced NASH in C57/BL6 mice; experiment: Diet-induced (CDAHFD) mouse model of non-alcoholic steatohepatitis (NASH); format: in vivo; settings: mouse liver
Text: This model uses a choline-deficient, L-amino acid-defined, high-fat diet (CDAHFD) consisting of 60 kcal % fat and 0.1% methionine to induce NASH.
C57/BL6 mice (Charles River) are divided into groups as set out below, the mice are 8 weeks (>20 grs) at the initiation of the induction phase.
• CDAHFD; Research Diets Inc., Ref. No. A06071302 • Control diet: normal diet (VRF 1, P), Special Diets Services
In order to induce a non-alcoholic steatohepatitis (NASH), animals will be fed with choline-deficient, L-amino acid-defined, high-fat diet (CDAHFD).
Mice were randomly assigned to a treatment group and treated according to schedule presented in the Table above until the evaluation phase.
Steady state PK sampling—Blood will be collected in K2-EDTA tubes to generate plasma. All blood samples will be processed for plasma by centrifugation (5,000 rpm for 10 minutes at 4° C.) within 30 minutes of collection. Plasma from each blood sample will be quickly frozen in liquid nitrogen and stored in a freezer maintained at −80° C. until analysis.
Final blood sample—Blood will be collected in tubes for serum preparation containing protease inhibitors. All blood samples will be processed by centrifugation (3,500 rpm for 15 minutes at 4° C.). Aliquots of obtained serum samples will be stored frozen at −80° C. until further analysis.
Tissue samples: The liver is harvested and portions of the left lateral lobe are stored for RNA gene expression analysis, TG assay, sectioned for OH proline measurement, and the rest placed in 10% formalin for histopathological evaluation. Histopathological evaluation includes sections stained with Sirius red to evaluate extent of fibrosis, and sections stained with F4/80 to assess macrophage accumulation.
A panel of 6 fibrosis genes (Col1A1, Timp1, Pai1, CTGF, TGFβ and Acta2), inflammation genes (TNFα, IL10 and CCL2) and 2 house keeping genes are used for gene expression analysis.

[3] = system: CFA induced hypersensitivity in rat; experiment: CFA induced hypersensitivity in rat assessed using weight bearing method; format: in vivo; settings: 10 mg/kg, 24 hours post CFA, 1, 2 and 4 hours post treatment
Text: Intraplantar injection of Complete Freunds adjuvant (CFA) causes an inflammatory reaction which induces hypersensitivity and oedema, and mimics some aspects of clinical inflammatory pain. These effects can be investigated using equipment to measure weight bearing and plethysmometer.
as §1, with “hind paw” for “hind knee”, “affected paw” for “affected limb”, “injured paw).” for “injured limb).”, “limb was” for “limb is”
Rats were placed in the incapacitance tester with the hind paws on separate sensors and the average force exerted by both hind limbs was recorded over 4 seconds.
Base line weight bearing and paw volume readings were taken and hypersensitivity was induced via injection of CFA (Baseline weight bearing and paw volume recordings were taken prior to induction of insult. Inflammatory hypersensitivity was induced by intraplantar injection of CFA (100 μL of 1 mg/mL solution) intraplantar to the rats left hind paw.
Animals (Male, Sprague Dawley Rats (Charles River, UK), 212-260 g) were ranked and randomised to treatment groups according to the weight bearing CFA window in a Latin square design. […]

Cc1c[nH]c2ncnc(N3CCC(NC(=O)c4cc(N)ncc4F)CC3)c12 [Compound 1, 2-amino-5-fluoro-N-[1-(5-methyl-7H-pyrrolo[2,3-d]pyrimidin-4-yl)-4-piperidyl]pyridine-4-carboxamide]
reversal of hypersensitivity (weight bearing) [1]: significant and marked reversal; also recorded: significant reversal when compared to vehicle at each time point
F4/80 quantification ([2]; day 73, 15 mg/kg/BID): significant effect
Sirius red fibrosis quantification ([2]; day 73, 15 mg/kg/QD and 15 mg/kg/BID): significant effect
expression levels of Pai1 (fibrosis gene panel) ([2]; day 73, at least the highest doses tested (5 mg/kg/QD, 15 mg/kg/QD, 15 mg/kg/BID p.o.), vs CDAHFD diet+vehicle): significant effect
expression levels of TGF (fibrosis gene panel) ([2]; day 73, at least the highest doses tested, vs CDAHFD diet+vehicle): significant effect
hypersensitivity response (weight bearing) [3]: significantly inhibited
